According to PubChem BioAssay AID2060887 (Molecular Pharmacology Branch, DTP, NCI, 2025):
pIC50: −log10 of the molar value.

Test system: 782815-120-R-J1-PDC complex spheroid viability
Assay: Anticancer human tumor 782815-120-R-J1-PDC patient-derived colon adenocarcinoma cell line growth inhibition [RAS]
Conditions: for pIC50: curve of first compound; for viability, T/C: stronger effect = lower value
Outline: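 Tumour cells grown as complex spheroids with HUVEC endothelial cells and mesenchymal stem cells, treated with RAS pathway inhibitor combinations. Each agent spans half-log steps from near clinical Cmax, or 10 microM where Cmax is unknown.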
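Further: spheroids exposed to compounds for 7 days before reading.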
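Wherever viability, T/C is given: 100% = DMSO vehicle control viability.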

In the case of `C=CC(=O)N1CCN(c2nc(OCC3CCCN3C)nc3c(F)c(-c4nc(N)cc(C)c4C(F)(F)F)c(Cl)cc23)C(C)C1` (centres undefined) + CCn1c(-c2cccnc2C(C)OC)c2c3cc(ccc31)N1CCOC(CC(NC(=O)C(C(C)C)N(C)C(=O)C3(F)CCN(C(=O)C#CC(C)(C)N(C)C)CC3)C(=O)N3CCCC(N3)C(=O)OCC(C)(C)C2)C1, the pIC50 (second compound 0.000949 µM) was less than 6.00, the pIC50 (second compound 0.003 µM) was less than 6.00 and the pIC50 (second compound 0.00949 µM) was less than 6.00. It also gave a pIC50 (second compound 0.03 µM) of less than 6.00, a pIC50 (second compound 0.0949 µM) of less than 6.00 and a pIC50 (second compound 0.3 µM) of less than 6.00. For the same molecule, the viability, T/C (second compound 0.000949 µM, first compound 0.00316 µM) was 95.1%, the viability, T/C (second compound 0.000949 µM, first compound 0.01 µM) was 96% and the viability, T/C (second compound 0.000949 µM, first compound 0.0316 µM) was 101%. For the same molecule, the viability, T/C (second compound 0.000949 µM, first compound 0.1 µM) was 83.2%, the viability, T/C (second compound 0.000949 µM, first compound 0.316 µM) was 94.4% and the viability, T/C (second compound 0.000949 µM, first compound 1 µM) was 94.5%. It also gave a viability, T/C (second compound 0.003 µM, first compound 0.00316 µM) of 91.3%, a viability, T/C (second compound 0.003 µM, first compound 0.01 µM) of 97% and a viability, T/C (second compound 0.003 µM, first compound 0.0316 µM) of 101%. It also gave a viability, T/C (second compound 0.003 µM, first compound 0.1 µM) of 94.8%, a viability, T/C (second compound 0.003 µM, first compound 0.316 µM) of 93.3% and a viability, T/C (second compound 0.003 µM, first compound 1 µM) of 94.7%. For the same molecule, the viability, T/C (second compound 0.00949 µM, first compound 0.00316 µM) was 87.2%, the viability, T/C (second compound 0.00949 µM, first compound 0.01 µM) was 97.2% and the viability, T/C (second compound 0.00949 µM, first compound 0.0316 µM) was 89.4%. The viability, T/C (second compound 0.00949 µM, first compound 0.1 µM) was 95.6%, the viability, T/C (second compound 0.00949 µM, first compound 0.316 µM) was 92.9% and the viability, T/C (second compound 0.00949 µM, first compound 1 µM) was 99.1%. The viability, T/C (second compound 0.03 µM, first compound 0.00316 µM) was 86.8%, the viability, T/C (second compound 0.03 µM, first compound 0.01 µM) was 95% and the viability, T/C (second compound 0.03 µM, first compound 0.0316 µM) was 87%. It also gave a viability, T/C (second compound 0.03 µM, first compound 0.1 µM) of 99.4%, a viability, T/C (second compound 0.03 µM, first compound 0.316 µM) of 94.4% and a viability, T/C (second compound 0.03 µM, first compound 1 µM) of 92.1%. For the same molecule, the viability, T/C (second compound 0.0949 µM, first compound 0.00316 µM) was 86.8%, the viability, T/C (second compound 0.0949 µM, first compound 0.01 µM) was 105% and the viability, T/C (second compound 0.0949 µM, first compound 0.0316 µM) was 99%. For the same molecule, the viability, T/C (second compound 0.0949 µM, first compound 0.1 µM) was 101%, the viability, T/C (second compound 0.0949 µM, first compound 0.316 µM) was 101% and the viability, T/C (second compound 0.0949 µM, first compound 1 µM) was 96.4%. The viability, T/C (second compound 0.3 µM, first compound 0.00316 µM) was 93.4%, the viability, T/C (second compound 0.3 µM, first compound 0.01 µM) was 84.3% and the viability, T/C (second compound 0.3 µM, first compound 0.0316 µM) was 97.5%. For the same molecule, the viability, T/C (second compound 0.3 µM, first compound 0.1 µM) was 91.2%, the viability, T/C (second compound 0.3 µM, first compound 0.316 µM) was 89.3% and the viability, T/C (second compound 0.3 µM, first compound 1 µM) was 87.4%.
`CC1(C)CCC(Nc2ncc(C(F)(F)F)c(-c3c[nH]c4c(P(C)(C)=O)c(C#N)ccc34)n2)CN1` (centres undefined) + CCn1c(-c2cccnc2C(C)OC)c2c3cc(ccc31)N1CCOC(CC(NC(=O)C(C(C)C)N(C)C(=O)C3(F)CCN(C(=O)C#CC(C)(C)N(C)C)CC3)C(=O)N3CCCC(N3)C(=O)OCC(C)(C)C2)C1 gave a pIC50 (second compound 0.000949 µM) of 7.37, a pIC50 (second compound 0.003 µM) of 7.36 and a pIC50 (second compound 0.00949 µM) of 7.17. For the same molecule, the pIC50 (second compound 0.03 µM) was 7.25, the pIC50 (second compound 0.0949 µM) was 7.20 and the pIC50 (second compound 0.3 µM) was 7.52. The viability, T/C (second compound 0.000949 µM, first compound 0.000949 µM) was 105%, the viability, T/C (second compound 0.000949 µM, first compound 0.003 µM) was 93.1% and the viability, T/C (second compound 0.000949 µM, first compound 0.00949 µM) was 68.5%. For the same molecule, the viability, T/C (second compound 0.000949 µM, first compound 0.03 µM) was 51%, the viability, T/C (second compound 0.000949 µM, first compound 0.0949 µM) was 49.8% and the viability, T/C (second compound 0.000949 µM, first compound 0.3 µM) was 41.2%. It also gave a viability, T/C (second compound 0.003 µM, first compound 0.000949 µM) of 91.5%, a viability, T/C (second compound 0.003 µM, first compound 0.003 µM) of 89.2% and a viability, T/C (second compound 0.003 µM, first compound 0.00949 µM) of 81.8%. The viability, T/C (second compound 0.003 µM, first compound 0.03 µM) was 52.1%, the viability, T/C (second compound 0.003 µM, first compound 0.0949 µM) was 45.8% and the viability, T/C (second compound 0.003 µM, first compound 0.3 µM) was 44.3%. It also gave a viability, T/C (second compound 0.00949 µM, first compound 0.000949 µM) of 90.5%, a viability, T/C (second compound 0.00949 µM, first compound 0.003 µM) of 93.7% and a viability, T/C (second compound 0.00949 µM, first compound 0.00949 µM) of 83.2%. For the same molecule, the viability, T/C (second compound 0.00949 µM, first compound 0.03 µM) was 54.1%, the viability, T/C (second compound 0.00949 µM, first compound 0.0949 µM) was 51.6% and the viability, T/C (second compound 0.00949 µM, first compound 0.3 µM) was 44.6%. It also gave a viability, T/C (second compound 0.03 µM, first compound 0.000949 µM) of 86.1%, a viability, T/C (second compound 0.03 µM, first compound 0.003 µM) of 88.8% and a viability, T/C (second compound 0.03 µM, first compound 0.00949 µM) of 78.4%. For the same molecule, the viability, T/C (second compound 0.03 µM, first compound 0.03 µM) was 54.9%, the viability, T/C (second compound 0.03 µM, first compound 0.0949 µM) was 44.1% and the viability, T/C (second compound 0.03 µM, first compound 0.3 µM) was 47.6%. The viability, T/C (second compound 0.0949 µM, first compound 0.000949 µM) was 107%, the viability, T/C (second compound 0.0949 µM, first compound 0.003 µM) was 83.6% and the viability, T/C (second compound 0.0949 µM, first compound 0.00949 µM) was 70.3%. The viability, T/C (second compound 0.0949 µM, first compound 0.03 µM) was 56.8%, the viability, T/C (second compound 0.0949 µM, first compound 0.0949 µM) was 45.5% and the viability, T/C (second compound 0.0949 µM, first compound 0.3 µM) was 39.9%. It also gave a viability, T/C (second compound 0.3 µM, first compound 0.000949 µM) of 83.9%, a viability, T/C (second compound 0.3 µM, first compound 0.003 µM) of 86.6% and a viability, T/C (second compound 0.3 µM, first compound 0.00949 µM) of 65%. For the same molecule, the viability, T/C (second compound 0.3 µM, first compound 0.03 µM) was 52.2%, the viability, T/C (second compound 0.3 µM, first compound 0.0949 µM) was 39.4% and the viability, T/C (second compound 0.3 µM, first compound 0.3 µM) was 36.3%.
